In patent US20040033987A1, “Phospholipid derivatives of valproic acid and mixtures thereof” (priority 2003, published 2004):
Entries after “also recorded” stand apart in the source; their conditions may differ.

Key:
[1] = compared with sodium valproate; from Ser. No. 08/479,959 and WO 94/22483; listed as TVA 16; cited from earlier work
[2] = Pharmacokinetics study in humans: plasma levels by LC-MS/MS after a single oral administration; assay type: in vivo, human; conditions: for time at which the peak concentration in the plasma was reached / terminal plasma half-life (t1/2): human plasma, single oral administration of C16/C18-DP-VPA (13%:87% w/w); for terminal plasma half-life (t1/2): calculated from plasma concentration-time profiles; for plasma concentration: human
Protocol: In order to assess the pharmacokinetic properties of the C16-DP-VPA and C18-DP-VPA compounds, the plasma levels of these compounds were monitored in human subjects.
Healthy male volunteers, 18-40 year old, (7 individuals for each dose tested) received, by a single oral administration, 0.3125 g, 0.625 g or 1.25 g of C16/C18-DP-VPA mixture at a ratio of C16/C18=13%: 87% (w/w). Blood samples, 10 ml each, were drawn from each individual at the time points after the administration of the drug, as indicated. The samples were centrifuged at 4° C. at 1100 g for 10 minutes immediately after collection. Plasma levels of C16-DP-VPA and C18-DP-VPA were determined using a LC-MS/MS technique. The plasma concentration profiles of C16-DP-VPA and C18-DP-VPA as monitored for 24 hours following a single oral administration 0.625 g of C16/C18-DP-VPA are shown, respectively, in FIGS. 2A and 2B.

[3] = test system: pentylenetetrazol (PTZ) induced seizure; test: PTZ-induced seizures test in mice; assay type: in vivo, CD-1 mice; conditions: for time of peak activity / maximal therapeutic effect: PTZ-induced seizures, s.c. equivalent to 40 mg/kg VPA; for % Protection / Second seizure (n//N): s.c. pre-treatment equivalent to 40 mg/kg VPA
Protocol: The anti-epileptic efficacies of C16-DP-VPA, C18-DP-VPA and mixtures comprising both C16-DP-VPA and C18-DP-VPA were evaluated in mice. The protective effect of the compounds was compared at different time points following chemical seizure induction by pentylenetetrazol (PTZ).
The pentylenetetrazol (PTZ) induced seizure model in mice is an established animal model system for epilepsy. Subcutaneous injection of PTZ into control animals results in the following sequence of events: myoclonic jerks within 1-2 mins, followed by clonic and clonic-tonic seizures each lasting approximately 5-10 secs with the severity of seizures increasing with time for up to 30 mins. 80% of the first seizures are-observed within 5 mins, and 100% within 20 mins. The second seizures usually follow within 6-10 mins and subsequent seizures (if any) every 6 mins.
CD-1 mice (25-30 g) were pre-treated by subcutaneous (s.c.) injection of either C16-DP-VPA or C18-DP-VPA or a mixture thereof. The amounts used were equivalent to 40 mg/kg VPA. After different times as indicated, 1, 2 or 4 hours, a convulsive dose of pentylenetetrazol (85-100 mg/kg) was subcutaneously injected into the mice. The animals were monitored for one hour following the PTZ administration for the occurrence of episodes of clonic spasms persisting for at least 5 sec.

[4] = 1 hour after single oral 0.625 g C16/C18-DP-VPA
[5] = 3 hours after single oral 0.625 g C16/C18-DP-VPA
[6] = 6 hours after single oral 0.625 g C16/C18-DP-VPA
[7] = 8 hours after single oral 0.625 g C16/C18-DP-VPA
[8] = 10 hours after single oral 0.625 g C16/C18-DP-VPA
[9] = 12 hours after single oral 0.625 g C16/C18-DP-VPA

time at which the peak concentration in the plasma was reached [2]	terminal plasma half-life (t1/2) [2]	plasma concentration [2, 4]	plasma concentration [2, 5]	plasma concentration [2, 6]	plasma concentration [2, 7]	plasma concentration [2, 8]	plasma concentration [2, 9]	Structure (SMILES)	anticonvulsant activity [1]	time of peak activity / maximal therapeutic effect [3]	% Protection ([3]; PTZ after 1 h)	Second seizure (n//N) ([3]; PTZ after 1 h)	% Protection ([3]; PTZ after 2 h)	Second seizure (n//N) ([3]; PTZ after 2 h)	% Protection ([3]; PTZ after 4 h)	Second seizure (n//N) ([3]; PTZ after 4 h)
6 h	14.0 ± 0.6 h	13 ± 34 ng/mL	167 ± 94 ng/mL	397 ± 172 ng/mL	385 ± 140 ng/mL	368 ± 182 ng/mL	318 ± 150 ng/mL	CCCCCCCCCCCCCCCC(=O)OC[C@H](COP(=O)([O-])OCC[N+](C)(C)C)OC(=O)C(CCC)CCC [C16-DP-VPA, 1-Palmitoyl-2-valproyl-sn-glycero-3-phosphatidylcholine]	significant anticonvulsant activity; also recorded: more potent than sodium valproate	≤ 1 h	50%	4/8	25%	6/8	38%	5/8
8 h	8.3 ± 1.3 h	0 ± 0 ng/mL	58 ± 43 ng/mL	818 ± 292 ng/mL	1175 ± 137 ng/mL	949 ± 254 ng/mL	698 ± 163 ng/mL	CCCCCCCCCCCCCCCCCC(=O)OC[C@H](COP(=O)([O-])OCC[N+](C)(C)C)OC(=O)C(CCC)CCC [C18-DP-VPA, 1-Stearoyl-2-valproyl-sn-glycero-3-phosphatidylcholine]	–	4 h	17%	5/6	14%	6/7	86%	1/7
